Measurements reported in patent US20020081661A1 (Synaptic Pharmaceutical Corporation, priority 1992, published 2002).
Where two headings read alike, the source gives them in different places.

Assays:
[1] = target: T1, rat 5-HT4 receptor S10-95 (CG-8) (Rattus norvegicus, UniProt Q62758); test: [3H]5-HT radioligand binding (displacement), membranes of Cos-7 cells transiently expressing rat S10-95 (CG-8); conditions: read-out: K1; CG-8, binding data using [3H]5-HT, Table 4
Protocol: (§2) For transient expression, Cos-7 cells were transfected by the DEAE-Dextran method, using 1 μg of DNA /10^6 cells (Warden, D. and H. V. Thorne, 1968).
(§3) Membrane Preparation: Membranes were prepared from transiently transfected COS-7 cells which were grown to 100% confluence. The cells were washed twice with phosphate-buffered saline, scraped from the culture dishes into 5 ml of ice-cold phosphate-buffered saline, and centrifuged at 200×g for 5 min at 4′. The pellet was resuspended in 2.5 ml of ice-cold Tris buffer (20 mM Tris -HCl, pH 7.4 at 23°, 5 mM EDTA), and homogenized by a Wheaton tissue grinder. The lysate was subsequently centrifuged at 200×g for 5 min at 4° to pellet large fragments which were discarded. The supernatant was collected and centrifuged at 40,000×g for 20 min at 4°. The pellet resulting from this centrifugation was washed once in ice-cold Tris wash buffer and finally resuspended in a final buffer containing 50 mM Tris-HCl and 0.5 mM EDTA, pH 7.4 at 23°. Membrane preparations were kept on ice and utilized within two hr for the radioligand binding assays. Protein concentrations were determined by the method of Bradford (1976) using bovine serum albumin as the standard.
(§4) The binding profile of drugs in competition experiments was established using 7 concentrations of compound. Incubation times were 30 min for both saturation and displacement studies. […] Binding was initiated by the addition of 50 μl membrane homogenates (10-20 μg). The reaction was terminated by rapid filtration through presoaked (0.5% polyethyleneimine) filters using 48R Cell Brandel Harvester (Gaithersburg, Md.). Subsequently, filters were washed for 5 sec with ice cold buffer (50 mM Tris HCL, pH 7.4 at 4° C.), dried and placed into vials containing 2.5 ml of Readi-Safe (Beckman, Fullerton, Calif.), and radioactivity was measured using a Beckman LS 6500C liquid scintillation counter. […] Binding data were analyzed by computer-assisted nonlinear regression analysis (Accufit and Accucomp, Lundon Software, Chagrin Falls, Ohio). […]

[2] = target: T2, rat 5-HT4 receptor S10-87 (CG-7) (Rattus norvegicus, UniProt Q62758); test: [3H]5-HT radioligand binding (saturation and displacement), membranes of Cos-7 cells transiently expressing rat S10-87 (CG-7)
Protocol: (§5) Membrane Preparation: Membranes were prepared from transiently transfected COS-7 cells which were grown to 100% confluence. The cells were washed twice with phosphate-buffered saline, scraped from the culture dishes into 5 ml of ice-cold phosphate-buffered saline, and centrifuged at 200×g for 5 min at 4′. The pellet was resuspended in 2.5 ml of ice-cold Tris buffer (20 mM Tris -HCl, pH 7.4 at 23°, 5 mM EDTA), and homogenized by a Wheaton tissue grinder. The lysate was subsequently centrifuged at 200×g for 5 min at 4° to pellet large fragments which were discarded. The supernatant was collected and centrifuged at 40,000×g for 20 min at 4°. The pellet resulting from this centrifugation was washed once in ice-cold Tris wash buffer and finally resuspended in a final buffer containing 50 mM Tris-HCl and 0.5 mM EDTA, pH 7.4 at 23°. Membrane preparations were kept on ice and utilized within two hr for the radioligand binding assays.
(§6) The binding profile of drugs in competition experiments was established using 7 concentrations of compound. Incubation times were 30 min for both saturation and displacement studies. […] Binding was initiated by the addition of 50 μl membrane homogenates (10-20 μg). The reaction was terminated by rapid filtration through presoaked (0.5% polyethyleneimine) filters using 48R Cell Brandel Harvester (Gaithersburg, Md.). Subsequently, filters were washed for 5 sec with ice cold buffer (50 mM Tris HCL, pH 7.4 at 4° C.), dried and placed into vials containing 2.5 ml of Readi-Safe (Beckman, Fullerton, Calif.), and radioactivity was measured using a Beckman LS 6500C liquid scintillation counter. […] Binding data were analyzed by computer-assisted nonlinear regression analysis (Accufit and Accucomp, Lundon Software, Chagrin Falls, Ohio).

[3] = target: T1, rat 5-HT4 receptor S10-95 (CG-8)
Protocol: as §2, §3, §4

[4] = target: T1, rat 5-HT4 receptor S10-95 (CG-8); test: [3H]GR113808 binding (saturation and displacement), COS-7 membranes, rat clone CG-8; parameters: two individual full length cDNA clones, S10-87 and S10-95, were isolated; expressed in transfected cells; host or cells: COS-7 (transient, DEAE-dextran)
Protocol: as §5
(§7) The binding profile of drugs in competition experiments was established using 10-12 concentrations of compound. Incubation times were 30 min for both saturation and displacement studies.

[5] = target: T2, rat 5-HT4 receptor S10-87 (CG-7); test: [3H]GR113808 binding (saturation and displacement), COS-7 membranes, rat clone CG-7; parameters: two individual full length cDNA clones, S10-87 and S10-95, were isolated; expressed in transfected cells; host or cells: COS-7 (transient, DEAE-dextran)
Protocol: as §5, §7

[6] = target: T3, human 5-HT4 receptor S10-95 (CG-17) (Homo sapiens, UniProt Q13639); test: [3H]5-HT displacement binding, human CG-17 clone
T3 construct: Isolation of the full length human S10-95 cDNA clone; expressed in transfected cells; host or cells: COS-7 (transient, DEAE-dextran)
Protocol: as §5, §6

[7] = target: T4, rat 5-HT4 (CG-8) receptor (Rattus norvegicus, UniProt Q62758); test: cAMP formation in intact Cos-7 cells transiently expressing CG-8; type: cell-based
T4 construct: two individual full length cDNA clones, S10-87 and S10-95, were isolated; expressed in transfected cells; host or cells: COS-7 (transient, DEAE-dextran)
Protocol: (§1) Measurement of cAMP Formation: The transiently transfected Cos-7 cells were incubated in Dulbecco's modified Eagle's medium, 5 mM theophylline, 10 mM Hepes (4-[2-Hydroxyethyl]-1-piperazineethanesulfonic acid), 10 μM pargyline, and/or appropriate concentrations of antagonists for 20 minutes at 37° C., 5% CO2. […] The media was aspirated and the reaction stopped by the addition of 100 mM HCl. The plates were stored at 4° C. for 15 minutes, centrifuged for 5 minutes, 500×g to pellet cellular debris, and the supernatant aliquotted and stored at −20° C. prior to assessment of cAMP formation by radioimmunoassay (cAMP Radioimmunoassay kit, Advanced Magnetics, Cambridge, Mass.). Radioactivity was quantitated using a Packard COBRA Auto Gamma Counter equipped with data reduction software. Functional data was fitted to a four parameter logistic equation to obtain response parameters (EC50, Emax, nH; Inplot, GraphPad, San Diego, Calif.).

[8] = target: T5, rat 5-HT4 (CG-7) receptor (Rattus norvegicus, UniProt Q62758); test: cAMP formation in intact Cos-7 cells transiently expressing CG-7; type: cell-based
T5 construct: two individual full length cDNA clones, S10-87 and S10-95, were isolated; expressed in transfected cells; host or cells: COS-7 (transient, DEAE-dextran)
Protocol: as §1

T2 sequence (Q62758 1-387 isoform Q62758-2): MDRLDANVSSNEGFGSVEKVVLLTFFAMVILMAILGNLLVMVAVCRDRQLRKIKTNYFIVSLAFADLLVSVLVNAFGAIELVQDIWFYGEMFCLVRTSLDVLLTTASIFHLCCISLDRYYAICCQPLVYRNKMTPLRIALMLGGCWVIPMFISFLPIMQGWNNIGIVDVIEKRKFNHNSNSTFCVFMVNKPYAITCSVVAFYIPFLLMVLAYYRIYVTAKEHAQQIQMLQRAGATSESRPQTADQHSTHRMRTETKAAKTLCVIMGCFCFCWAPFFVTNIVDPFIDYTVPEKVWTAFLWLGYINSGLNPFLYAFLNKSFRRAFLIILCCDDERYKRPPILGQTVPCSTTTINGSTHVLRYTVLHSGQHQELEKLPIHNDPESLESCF
T5 sequence (Q62758 1-387 isoform Q62758-2): as above
T4 sequence (Q62758 whole entry): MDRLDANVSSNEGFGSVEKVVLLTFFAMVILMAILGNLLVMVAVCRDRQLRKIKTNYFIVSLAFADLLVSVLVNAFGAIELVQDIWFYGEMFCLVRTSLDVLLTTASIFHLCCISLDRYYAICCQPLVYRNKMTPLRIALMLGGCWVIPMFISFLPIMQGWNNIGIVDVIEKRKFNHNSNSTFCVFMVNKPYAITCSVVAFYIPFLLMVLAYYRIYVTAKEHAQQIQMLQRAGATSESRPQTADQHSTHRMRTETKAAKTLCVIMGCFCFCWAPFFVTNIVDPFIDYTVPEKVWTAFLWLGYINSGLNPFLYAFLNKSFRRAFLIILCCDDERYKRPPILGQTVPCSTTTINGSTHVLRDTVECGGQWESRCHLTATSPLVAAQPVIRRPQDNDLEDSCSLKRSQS
T1 sequence (Q62758 whole entry): as above
T3 sequence (Q13639 whole entry): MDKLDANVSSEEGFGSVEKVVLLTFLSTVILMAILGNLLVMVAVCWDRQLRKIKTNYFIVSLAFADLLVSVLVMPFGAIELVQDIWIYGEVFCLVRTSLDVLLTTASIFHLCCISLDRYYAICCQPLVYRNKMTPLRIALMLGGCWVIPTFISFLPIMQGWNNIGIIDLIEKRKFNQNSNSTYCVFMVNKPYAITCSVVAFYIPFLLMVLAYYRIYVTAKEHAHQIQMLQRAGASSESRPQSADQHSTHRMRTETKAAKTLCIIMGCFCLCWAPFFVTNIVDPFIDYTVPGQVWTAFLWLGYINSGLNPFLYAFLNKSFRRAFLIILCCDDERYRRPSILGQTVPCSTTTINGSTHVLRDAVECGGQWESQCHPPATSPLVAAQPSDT

COc1cc(N)c(Cl)cc1C(=O)NC1CN2CCC1CC2 (stereo not drawn) [Zacopride, zacopride]
Ki [1]: 136 ± 5 nM
Ki [2]: 130 ± 10 nM
Ki ([2]; K1 (nM), CG-7, binding data using [3H]5-HT, Table 4): 130 ± 10 nM
Ki [3]: 136 ± 5 nM
Ki ([4]; CG-8, 0.2-0.4 nM [3H]GR113808, single experiment, read-out: Affinity estimate K1): 820 nM
nH (Hill coefficient) ([4]; CG-8, [3H]GR113808): nH = 0.85
Ki ([5]; CG-7, 0.2-0.4 nM [3H]GR113808, single experiment, read-out: Affinity estimate K1): 729 nM
BH (percentage of high affinity sites) ([5]; CG-7, [3H]GR113808): 68%
nH (Hill coefficient) ([5]; CG-7, [3H]GR113808): nH = 0.80
Ki ([5]; CG-7, [3H]GR113808, read-out: KH (affinity for the high affinity state)): 424 nM
Ki ([5]; CG-7, [3H]GR113808, read-out: KL (affinity for the low affinity state)): 2760 nM
fold higher affinity for the human CG-17 clone ([6]; human CG-17 compared with rat clones): about 7 fold
Ki ([6]; read-out: Ki): 17 nM
agonist / antagonist character ([7]; CG-8, cAMP response): partial agonists
I. A. (intrinsic activity) ([7]; CG-8, maximum response normalized to 5-HT maximum = 1.0): 1.0
EC50 ([7]; CG-8, stimulation of basal cAMP release, means ± S.E.M. of three experiments, read-out: EC50): 239 ± 33 nM
agonist / antagonist character ([8]; CG-7, cAMP response): partial agonists
I. A. (intrinsic activity) ([8]; CG-7, maximum response normalized to 5-HT maximum = 1.0): 1.1
fold lower affinity than cisapride ([8]; CG-7, stimulation of adenylate cyclase): ~15 fold
times less potent than 5-HT ([8]; CG-7, stimulation of basal cAMP release): ~100 fold
EC50 ([8]; CG-7, stimulation of basal cAMP release, means ± S.E.M. of three experiments, read-out: EC50): 2740 nM
